From ChEMBL document CHEMBL1136973, “Structure-activity relationships of heteroaromatic esters as human rhinovirus 3C protease inhibitors” (Bioorg Med Chem Lett, 2009)
The source made the active and inactive calls. The rule behind the calls is not given here.

The compounds below were run against Genome polyprotein (rhinovirus A16) (UniProt Q82122) (assay: Inhibition of HRV-16 protease 3C expressed in Escherichia coli BL21(DE3) at 10 uM by FRET assay).
Sequence of Genome polyprotein (rhinovirus A16) (Q82122 whole entry): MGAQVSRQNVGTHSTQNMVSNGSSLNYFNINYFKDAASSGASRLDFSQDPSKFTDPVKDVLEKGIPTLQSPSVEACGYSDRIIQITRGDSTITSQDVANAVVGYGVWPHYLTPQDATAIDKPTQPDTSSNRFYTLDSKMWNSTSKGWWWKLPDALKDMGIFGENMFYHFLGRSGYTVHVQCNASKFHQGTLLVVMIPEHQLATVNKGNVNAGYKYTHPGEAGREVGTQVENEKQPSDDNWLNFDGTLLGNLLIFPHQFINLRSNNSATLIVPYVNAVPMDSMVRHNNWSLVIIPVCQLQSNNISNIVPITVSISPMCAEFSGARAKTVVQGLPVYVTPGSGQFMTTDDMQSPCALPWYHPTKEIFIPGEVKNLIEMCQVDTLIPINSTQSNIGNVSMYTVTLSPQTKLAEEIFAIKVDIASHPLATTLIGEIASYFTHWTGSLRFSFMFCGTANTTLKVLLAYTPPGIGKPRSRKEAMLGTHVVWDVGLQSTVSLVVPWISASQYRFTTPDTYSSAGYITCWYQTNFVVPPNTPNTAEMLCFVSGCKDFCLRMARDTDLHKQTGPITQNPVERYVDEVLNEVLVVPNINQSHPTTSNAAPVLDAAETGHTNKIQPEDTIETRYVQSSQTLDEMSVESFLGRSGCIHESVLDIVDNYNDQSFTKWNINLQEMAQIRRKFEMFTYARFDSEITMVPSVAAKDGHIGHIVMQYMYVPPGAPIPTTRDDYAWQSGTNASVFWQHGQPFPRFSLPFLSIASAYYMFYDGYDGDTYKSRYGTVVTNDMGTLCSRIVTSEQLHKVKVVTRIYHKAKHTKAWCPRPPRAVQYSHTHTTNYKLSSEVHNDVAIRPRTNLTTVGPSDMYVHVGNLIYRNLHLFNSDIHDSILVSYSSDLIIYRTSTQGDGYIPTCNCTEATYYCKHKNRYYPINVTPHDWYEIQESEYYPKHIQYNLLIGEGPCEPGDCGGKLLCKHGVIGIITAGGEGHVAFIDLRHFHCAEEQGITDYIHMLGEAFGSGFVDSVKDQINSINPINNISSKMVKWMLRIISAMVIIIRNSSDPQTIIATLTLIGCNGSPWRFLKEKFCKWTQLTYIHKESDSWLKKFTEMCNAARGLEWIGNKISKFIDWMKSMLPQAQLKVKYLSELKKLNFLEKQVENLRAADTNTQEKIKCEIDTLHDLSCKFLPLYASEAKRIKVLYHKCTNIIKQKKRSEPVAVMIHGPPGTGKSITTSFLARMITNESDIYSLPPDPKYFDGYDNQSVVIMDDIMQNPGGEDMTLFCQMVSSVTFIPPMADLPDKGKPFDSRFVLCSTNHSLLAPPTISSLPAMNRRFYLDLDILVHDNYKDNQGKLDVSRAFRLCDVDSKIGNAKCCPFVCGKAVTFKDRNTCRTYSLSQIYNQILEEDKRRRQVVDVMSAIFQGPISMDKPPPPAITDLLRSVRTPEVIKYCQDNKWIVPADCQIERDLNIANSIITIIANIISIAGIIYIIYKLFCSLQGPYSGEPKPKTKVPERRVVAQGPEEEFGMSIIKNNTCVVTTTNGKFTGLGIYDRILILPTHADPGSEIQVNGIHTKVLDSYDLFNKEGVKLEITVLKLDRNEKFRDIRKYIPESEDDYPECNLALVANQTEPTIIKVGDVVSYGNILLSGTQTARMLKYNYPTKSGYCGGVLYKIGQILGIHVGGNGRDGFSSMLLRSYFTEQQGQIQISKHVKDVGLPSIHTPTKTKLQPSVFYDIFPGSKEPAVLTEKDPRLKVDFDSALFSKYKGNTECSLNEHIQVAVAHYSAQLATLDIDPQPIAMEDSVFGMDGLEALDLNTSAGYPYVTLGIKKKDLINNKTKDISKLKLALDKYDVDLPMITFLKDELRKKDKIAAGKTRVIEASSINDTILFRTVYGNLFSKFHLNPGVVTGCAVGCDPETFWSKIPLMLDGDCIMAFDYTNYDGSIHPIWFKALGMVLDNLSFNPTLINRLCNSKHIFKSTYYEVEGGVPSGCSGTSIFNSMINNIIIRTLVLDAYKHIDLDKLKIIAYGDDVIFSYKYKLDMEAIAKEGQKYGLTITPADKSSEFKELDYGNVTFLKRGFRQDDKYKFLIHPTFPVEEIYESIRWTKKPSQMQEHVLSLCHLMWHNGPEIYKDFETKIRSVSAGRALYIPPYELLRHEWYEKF
In the case of `NC(=O)c1ccc(OC(=O)c2ccco2)cc1`, the inhibition is reported as 21%.

Each compound was assayed against Genome polyprotein (rhinovirus A16, UniProt Q82122) (assay: Inhibition of HRV-16 protease 3C expressed in Escherichia coli BL21(DE3) by FRET assay).
Sequence of Genome polyprotein (Q82122 1511-1693 limits assumed): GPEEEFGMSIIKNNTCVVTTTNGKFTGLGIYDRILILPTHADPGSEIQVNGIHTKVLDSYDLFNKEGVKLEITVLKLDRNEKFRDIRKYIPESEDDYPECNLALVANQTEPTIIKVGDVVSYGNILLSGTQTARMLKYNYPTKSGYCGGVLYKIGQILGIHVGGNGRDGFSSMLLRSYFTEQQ
`CCOc1nc(/C=C/c2ccccc2)oc1C(=O)Oc1cncc(Cl)c1` was tested, and the IC50 was 690 nM.
`O=C(Oc1cncc(Cl)c1)c1cnc[nH]1` was tested, and the IC50 was 290 nM.
`O=C(Oc1cncc(Cl)c1)c1ccc2ccccc2c1` gave an IC50 of 710 nM.
`O=C(Oc1cc(=O)[nH]c2ccccc12)c1ccco1` was tested, and the IC50 was 200 nM.
Compound `O=C(Oc1cncc(Br)c1)c1ccco1` has an IC50 of 80 nM.

The compounds below were run against Replicase polyprotein 1ab (Severe acute respiratory syndrome-related coronavirus, UniProt P0C6X7) (assay: Inhibition of SARS coronavirus isolate Tor2 3C-like protease by FRET assay).
In the case of `O=C(Oc1cccnc1)c1cccs1`, the IC50 is reported as 500 nM.

The compounds below were run against Genome polyprotein (rhinovirus A16) (UniProt Q82122) (assay: Inhibition of HRV-16 protease 3C expressed in Escherichia coli BL21(DE3) at 1 uM by FRET assay).
`O=C(Oc1cccnc1)c1ccco1` gave an inhibition of 8%.
With `O=C(Oc1cncc(Cl)c1)c1c[nH]cn1` the inhibition was 82%.
With `CCOc1nc(Cc2ccccc2)oc1C(=O)Oc1cncc(Cl)c1` the inhibition was 5%.
With `O=C(Oc1cncc(Cl)c1)c1cccs1` the inhibition was 64%.
For `O=C(/C=C/c1ccccc1)Oc1cncc(Br)c1`, the inhibition was 63%.
`CCOc1nc(-c2ccc3ccccc3c2)oc1C(=O)Oc1cncc(Cl)c1` showed an inhibition of 34%.
With `O=C(Oc1cccnc1O)c1ccco1` the inhibition was “inactive”.
With `O=C(Oc1cncc(Cl)c1)c1ccc(-c2ccc(Cl)cc2)o1` the inhibition was 89%.
`O=C(Oc1cncc(Cl)c1)c1ccc(-c2ccc([N+](=O)[O-])cc2)o1` gave an inhibition of 60%.
`CCOc1nc(C(c2ccccc2)c2ccccc2)oc1C(=O)Oc1cncc(Cl)c1` gave an inhibition of 5%.
Work on `CCOc1nc(/C=C/c2ccccc2)oc1C(=O)Oc1cncc(Cl)c1` yielded an inhibition of 87%.
With `O=C(Oc1cc(Cl)cnc1O)c1ccco1` the inhibition was “inactive”.
In the case of `O=C(Oc1cncc(Cl)c1)c1cn(-c2ccc(C(F)(F)F)cc2)cn1`, the inhibition is reported as 40%.
For `NC(=O)c1cccc(OC(=O)c2ccco2)c1`, the inhibition was 5%.
In the case of `O=C(Oc1ccccn1)c1ccco1`, the inhibition is reported as “inactive”.
`O=C(Oc1cncc(Cl)c1)c1ccc2ccccc2c1` showed an inhibition of 80%.
Compound `O=C(Oc1cncc(Cl)c1)c1ccccc1` has an inhibition of 59%.
`NC(=O)c1ncccc1OC(=O)c1ccco1` showed an inhibition of 14%.
Compound `O=C(Oc1cncc(Cl)c1)c1ccc(-c2ccccc2)o1` has an inhibition of 80%.
`O=C(Oc1cc(=O)[nH]c2ccccc12)c1ccco1` showed an inhibition of 98%.
`Cc1cc(C(=O)Oc2cncc(Cl)c2)no1` was tested, and the inhibition was “inactive”.
`O=C(Oc1cccnc1C(=O)O)c1ccco1` was tested, and the inhibition was “inactive”.
With `O=C(Oc1cncc(Cl)c1)c1cccc2ccccc12` the inhibition was 75%.
With `Cc1ccc(-c2ccc(C(=O)Oc3cncc(Cl)c3)o2)cc1` the inhibition was 79%.
For `CCOc1nc(-c2ccccc2)oc1C(=O)Oc1cncc(Cl)c1`, the inhibition was “inactive”.
Compound `Nc1ncccc1OC(=O)c1ccco1` has an inhibition of 24%.
For `NC(=O)c1ccc(OC(=O)c2ccco2)cc1`, the inhibition was 5%.
`O=C(Oc1ccncc1)c1ccco1` was tested, and the inhibition was “inactive”.
Work on `O=C(CCc1ccccc1)Oc1cncc(Br)c1` yielded an inhibition of 34%.
`O=C(Oc1cncc(Cl)c1)c1ccco1` gave an inhibition of 87%.
For `O=C(Oc1cncc(Br)c1)c1ccco1`, the inhibition was 90%.
